The structures appear in SMILES notation.

Take `*C(=O)Nc1ccc(Cc2ccc(NC(=O)c3ccc4c(c3)C(=O)N(c3c(C)cc(-c5cc(C)c(N6C(=O)c7ccc(*)cc7C6=O)c(C)c5)cc3C)C4=O)c(C)c2)cc1C` (repeat unit): the glass transition temperature amounted to 329.00 °C. In the case of `*C(=O)c1cc2c(cc1Cl)C(=O)N(c1cc(C(=O)O)cc(N3C(=O)c4cc(*)c(Cl)cc4C3=O)c1)C2=O` (repeat unit), the glass transition temperature was determined as 368.00 °C. On to `*C(=O)c1cc2c(cc1Cl)C(=O)N(c1cc(C(=O)OC)cc(N3C(=O)c4cc(*)c(Cl)cc4C3=O)c1)C2=O` (repeat unit), for which the glass transition temperature was determined as 321.00 °C. Next, `*C(=O)c1ccc(Oc2ccc(Oc3ccc(C(=O)c4ccc5c(c4)C(=O)N(c4ccc(Cc6ccc(N7C(=O)c8ccc(*)cc8C7=O)cc6)cc4)C5=O)cc3)cc2)cc1` (repeat unit): 225.00 °C; `*C(=O)c1ccc2c(c1)C(=O)N(c1c(C)cc(-c3cc(C)c(N4C(=O)c5ccc(*)cc5C4=O)c(C)c3)cc1C)C2=O` (repeat unit): 310.00 °C. In the case of `*C(=O)c1ccc2c(c1)C(=O)N(c1c(C)cc(C(c3cc(C(F)(F)F)cc(C(F)(F)F)c3)c3cc(C)c(N4C(=O)c5ccc(*)cc5C4=O)c(C)c3)cc1C)C2=O` (repeat unit), the glass transition temperature amounted to 301.10 °C. Next, `*C(=O)c1ccc2c(c1)C(=O)N(c1c(C)cc(C(c3cc(C)c(N4C(=O)c5ccc(*)cc5C4=O)c(C)c3)c3cccc4ccccc34)cc1C)C2=O` (repeat unit): 318.00 °C; `*C(=O)c1ccc2c(c1)C(=O)N(c1cc(C(=O)O)cc(N3C(=O)c4ccc(*)cc4C3=O)c1)C2=O` (repeat unit): 314.00 °C; `*C(=O)c1ccc2c(c1)C(=O)N(c1cc(C(=O)c3ccccc3)cc(N3C(=O)c4ccc(*)cc4C3=O)c1)C2=O` (repeat unit): 282.00 °C. Regarding `*C(=O)c1ccc2c(c1)C(=O)N(c1ccc(C(c3ccccc3)(c3ccc(N4C(=O)c5ccc(*)cc5C4=O)cc3)C(F)(F)F)cc1)C2=O` (repeat unit), the glass transition temperature stood at 311.00 °C.

Take `*C(=O)c1ccc2c(c1)C(=O)N(c1ccc(C3(c4ccc(N5C(=O)c6ccc(*)cc6C5=O)cc4)c4ccccc4-c4ccccc43)cc1)C2=O` (repeat unit): the glass transition temperature was 376.00 °C. `*C(=O)c1ccc2c(c1)C(=O)N(c1ccc(CP(=O)(OCCCl)OCCCl)c(N3C(=O)c4ccc(*)cc4C3=O)c1)C2=O` (repeat unit) yielded a glass transition temperature of 261.00 °C. The compound `*C(=O)c1ccc2c(c1)C(=O)N(c1ccc(Cc3ccc(Cc4ccc(Cc5ccc(N6C(=O)c7ccc(*)cc7C6=O)cc5)cc4)cc3)cc1)C2=O` (repeat unit) gave a glass transition temperature of 302.00 °C. Turning to `*CC(O)COc1ccc(C(C)(C)c2ccc(OCC(O)COc3c(C)cc(S(=O)(=O)c4cc(C)c(O*)c(C)c4)cc3C)cc2)cc1` (repeat unit), the glass transition temperature stood at 137.50 °C. The result for `*OP(=O)(Oc1ccc(Br)cc1)Oc1c(C)cc(S(=O)(=O)c2cc(C)c(*)c(C)c2)cc1C` (repeat unit) reads 162.00 °C. In turn, `*O[Si](C)(C)c1ccc([Si](C)(C)Oc2c(C)cc(-c3cc(C)c(*)c(C)c3)cc2C)cc1` (repeat unit) yielded a glass transition temperature of 67.00 °C.

Regarding `*Oc1c(Br)cc(C(C)(C)c2cc(Br)c(OC(=O)c3cccc(C(*)=O)c3)c(Br)c2)cc1Br` (repeat unit), the glass transition temperature worked out at 115.00 °C. `*Oc1c(C)cc(-c2cc(C)c(Oc3ccc(C(=O)c4ccc5cc(C(=O)c6ccc(*)cc6)ccc5c4)cc3)c(C)c2)cc1C` (repeat unit) yielded a glass transition temperature of 270.00 °C. `*Oc1c(C)cc(-c2cc(C)c(Oc3ccc(C(=O)c4ccccc4-c4ccccc4C(=O)c4ccc(*)cc4)cc3)c(C)c2)cc1C` (repeat unit): the glass transition temperature was found to be 233.00 °C. The result for `*Oc1c(C)cc(C(C)(C)c2cc(C)c(OC(*)=O)c(C)c2)cc1C` (repeat unit) reads 193.00 °C; that for `*Oc1c(C)cc(C(C)(C)c2cc(C)c(OC(=O)c3ccc(C(*)=O)cc3)c(C)c2)cc1C` (repeat unit), 239.00 °C.

Turning to `*Oc1c(C)cc(C(C)(C)c2cc(C)c(ON3C(=O)c4ccc(Oc5ccc(C6(c7ccc(Oc8ccc9c(c8)C(=O)N(*)C9=O)cc7)CCC(C(C)(C)C)CC6)cc5)cc4C3=O)c(C)c2)cc1C` (repeat unit), the glass transition temperature came out at 248.00 °C. Compound `*Oc1c(C)cc(C2(c3cc(C)c(OC(=O)c4ccc(C(*)=O)cc4)c(C)c3)CCC3CCCCC3C2)cc1C` (repeat unit) yielded a glass transition temperature of 287.00 °C. The compound `*Oc1c(C)cc(C2(c3cc(C)c(Oc4ccc(C(=O)c5cccc(C(=O)c6ccc(*)cc6)c5)cc4)c(C)c3)CCC3CCCCC3C2)cc1C` (repeat unit) registered a glass transition temperature of 224.00 °C. `*c1c(C)cc(-c2cc(C)c(-n3c(=O)c4cc5c(=O)n(*)c(=O)c5cc4c3=O)c(C)c2)cc1C` (repeat unit): the glass transition temperature amounted to 340.00 °C. Next, `*c1c(C)cc(-c2cc(C)c(N3C(=O)c4ccc(Oc5cc6ccccc6cc5Oc5ccc6c(c5)C(=O)N(*)C6=O)cc4C3=O)c(C)c2)cc1C` (repeat unit): 308.00 °C; `*c1c(C)cc(-c2cc(C)c(N3C(=O)c4cccc(Oc5ccc(C(C)(C)c6ccc(Oc7cccc8c7C(=O)N(*)C8=O)cc6)cc5)c4C3=O)c(C)c2)cc1C` (repeat unit): 265.00 °C; `*c1c(C)cc(C(c2cc(C(F)(F)F)cc(C(F)(F)F)c2)c2cc(C)c(N3C(=O)c4ccc(-c5ccc6c(c5)C(=O)N(*)C6=O)cc4C3=O)c(C)c2)cc1C` (repeat unit): 317.40 °C.

As to `*c1c(C)cc(C(c2cc(C)c(N3C(=O)c4ccc(-c5ccc6c(c5)C(=O)N(*)C6=O)cc4C3=O)c(C)c2)c2cccc3ccccc23)cc1C` (repeat unit), the glass transition temperature is 326.00 °C.

On to `*c1c(C)cc(C(c2cccc(C(F)(F)F)c2)c2cc(C)c(N3C(=O)c4ccc(-c5ccc6c(c5)C(=O)N(*)C6=O)cc4C3=O)c(C)c2)cc1C` (repeat unit), for which the glass transition temperature is 312.90 °C. `*c1c(C)cc(C(c2cccc(C(F)(F)F)c2)c2cc(C)c(N3C(=O)c4ccc(Oc5ccc6c(c5)C(=O)N(*)C6=O)cc4C3=O)c(C)c2)cc1C` (repeat unit) yielded a glass transition temperature of 264.10 °C.

Turning to `*c1c(C)cc(C(c2cccnc2)c2cc(C)c(N3C(=O)CC(Nc4ccc(Cc5ccc(NC6CC(=O)N(*)C6=O)cc5)cc4)C3=O)c(C)c2)cc1C` (repeat unit), the glass transition temperature turned out to be 219.00 °C.

For `*c1cc(/N=N/c2ccc(C#N)cc2)cc(*)c1O` (repeat unit), the glass transition temperature is 176.00 °C. Next, `*c1cc(Br)c(-c2c(Br)cc(N3C(=O)c4ccc(-c5ccc6c(c5)C(=O)N(*)C6=O)cc4C3=O)cc2C(=O)OCCCCCC)c(C(=O)OCCCCCC)c1` (repeat unit): 154.00 °C. As to `*c1cc(Br)c(-c2c(Br)cc(N3C(=O)c4ccc(-c5ccc6c(c5)C(=O)N(*)C6=O)cc4C3=O)cc2C(=O)OCCCCCCCCCCCC)c(C(=O)OCCCCCCCCCCCC)c1` (repeat unit), the glass transition temperature turned out to be 108.00 °C. As for `*c1cc(Br)c(-c2c(Br)cc(N3C(=O)c4ccc(-c5ccc6c(c5)C(=O)N(*)C6=O)cc4C3=O)cc2C(=O)OCCCCCCCCCCCCCC)c(C(=O)OCCCCCCCCCCCCCC)c1` (repeat unit), the glass transition temperature was determined as 98.00 °C.

In the case of `*c1cc(C(=O)NCCCC)cc(N2C(=O)c3ccc(-c4ccc5c(c4)C(=O)N(*)C5=O)cc3C2=O)c1` (repeat unit), the glass transition temperature was 291.00 °C. Next, `*c1cc(C(=O)OCC(F)(F)C(F)(F)C(F)(F)F)c(*)s1` (repeat unit): 129.00 °C; `*c1cc(C(=O)OCC)cc(N2C(=O)CC(C3Cc4ccccc4C4C(=O)N(*)C(=O)C43)C2=O)c1` (repeat unit): 254.00 °C; `*c1cc(C(=O)OCCC)cc(N2C(=O)CC(C3Cc4ccccc4C4C(=O)N(*)C(=O)C43)C2=O)c1` (repeat unit): 249.00 °C. The result for `*c1cc(C(=O)OCCCCCC)cc(N2C(=O)CC(C3Cc4ccccc4C4C(=O)N(*)C(=O)C43)C2=O)c1` (repeat unit) reads 187.00 °C; that for `*c1cc(C(=O)OCCCCCCCCCCOc2ccc(-c3ccc(OC(=O)c4ccc(OCC(F)CCCCCC)cc4)cc3)cc2)c(*)s1` (repeat unit), 151.00 °C.

As to `*c1cc(C)c(/N=C/c2ccc(OCc3ccc(COc4ccc(/C=N/c5cc(C)c(N6C(=O)c7ccc8c9ccc%10c%11c(ccc(c%12ccc(c7c8%12)C6=O)c%119)C(=O)N(*)C%10=O)cc5C)cc4)cc3)cc2)cc1C` (repeat unit), the glass transition temperature came to 130.00 °C. Consider `*c1cc(Oc2c(C)cc(-c3cc(C)c(Oc4cc(N5C(=O)c6ccc(Oc7ccc8c(c7)C(=O)N(*)C8=O)cc6C5=O)cc(C(F)(F)F)c4)c(C)c3)cc2C)cc(C(F)(F)F)c1` (repeat unit), for which the glass transition temperature is 252.20 °C. Regarding `*c1ccc(C(=O)Oc2c(C)cc(C(c3cccnc3)c3cc(C)c(OC(=O)c4ccc(N5C(=O)CC(Nc6cccc(NC7CC(=O)N(*)C7=O)c6)C5=O)cc4)c(C)c3)cc2C)cc1` (repeat unit), the glass transition temperature worked out at 194.00 °C. Next, `*c1ccc2c(c1)C(=O)N(c1c(C)cc(-c3cc(C)c(-c4cc(C)c(N5C(=O)c6ccc(C(*)(C(F)(F)F)C(F)(F)F)cc6C5=O)c(C)c4)cc3C)cc1C)C2=O` (repeat unit): 361.00 °C; `*c1ccc2c(c1)C(=O)N(c1c(C)cc(C(c3cc(C)c(N4C(=O)c5ccc(C(*)(C(F)(F)F)C(F)(F)F)cc5C4=O)c(C)c3)c3cccc4ccccc34)cc1C)C2=O` (repeat unit): 314.00 °C.

`*c1ccc2c(c1)C(=O)N(c1c(C)cc(C(c3cccc(C(F)(F)F)c3)c3cc(C)c(N4C(=O)c5ccc(C(*)(C(F)(F)F)C(F)(F)F)cc5C4=O)c(C)c3)cc1C)C2=O` (repeat unit) displayed a glass transition temperature of 286.10 °C.

The compound `*c1ccc2c(c1)C(=O)N(c1cc(C(=O)O)cc(N3C(=O)c4ccc(C(*)(C(F)(F)F)C(F)(F)F)cc4C3=O)c1)C2=O` (repeat unit) gave a glass transition temperature of 366.50 °C.
